# Peptide text beside a SMILES is read from it.
# Tests used:
# [1] = tested on: western corn rootworm (WCR) larvae; test: Oral toxicity screening of CPPs in artificial diet; format: in vivo; conditions: first instar WCR larvae, mortality and stunting
# Protocol: Briefly, CPPs were incorporated into standard WCR artificial diet in 96-well microtiter plate format. A 25 μL aliquot of dosing solution was combined with 75 μL molten low-melt WCR diet and shaken on an orbital shaker to mix. Once diet solidified, preconditioned first instar WCR (freshly-hatched insects placed on neutral diet for 24 hours prior to transfer to test diet) were added to the diet plates at a rate of 1 insect·well^−1. Plates were placed inside an incubator (Percival Scientific, Inc., Perry, IA) set to 27° C., 65% RH, and a 24-hour dark cycle. The assay was scored for mortality and stunting affects after 7 and 12 days, without diet refresh, on a 0-3 scale, where 3=mortality, 2=severe stunting, 1=stunting, 0=no affect when compared with untreated larvae. The assay was repeated three times and end-results were tabulated using all three replicates and converted to percentages (Table 5).
# Sf9 cells = test: CPP-mediated delivery of mCherry mRNA cargo into insect cells; format: cell-based, Spodoptera frugiperda; conditions: complex of 75 μM unlabeled CPP and 10 μg mCherry mRNA, overnight
# From the text: Sample preparation and analysis methods were based on those previously reported (Jafari et al. (201 4) “Serum stability and physicochemical characterization of a novel amphipathic peptide C6M 1 for siRNA delivery”, PLoS One, 9(5), e97797; and Gillet et al. (2017) “Investigating Engineered Ribonucleoprotein Particles to Improve Oral RNAi Delivery in Crop Insect Pests”, Frontiers in Physiology, 8(256), doi: 10.3389/fphys.2017.00256). Reagents are described in Examples 1 and 2. Nanocomplex samples were prepared in one of several ways, depending on type of CPP, RNA, or assay. […] Reaction volumes added to cells were 6.38 μL CPP and 6.38 μL mRNA. Final optimal CPP concentration was assessed by amount of fluorescent signal apparent within cells. For insect cell-based assays with CPP-YFP·Cy3-dsRNA or CPP·dsRNA, first a complex formation solution was prepared in molecular biology-grade water containing 90 mg·mL^−1 maltose, 9 mg·mL^−1 mannitol, 392. 16 mM CaCI2, pH 7.0, and vacuum-filtered using Corning™ Disposable Vacuum Filter and Storage System containing a cellulose nitrate filter. Then, increasing amounts of CPP-YFP were added to Cy3-dsRNA, from a molar ratio (CPP-YFP:Cy3-dsRNA) of 1:4 through 8:1 and incubated protected from light at 25° C. for 90 minutes prior to assessment via gel shift and DLS. Reaction volumes added per cell well were comprised of 17 μL reaction solution, 1 μL CPP, 1 μL dsRNA, and 1 μL molecular biology grade water; reaction sizes for larger total volumes were increased in increments of 20 μL and component ratio was held constant to maintain an ionic strength of […]. Final optimal molar ratio selected for cell experiments were determined by increase of the apparent size of the Cy3-dsRNA band on a native agarose gel (FIG. 2A and FIG. 2B), and/or appearance and increase in size of the complex peak detected by a Zetasizer Ultra (Malvern Panalytical, Malvern, United Kingdom) DLS instrument (FIG. 2C). […] Final optimal BAPC1 concentration was assessed by amount of fluorescent signal apparent within cells. […]
compound,measurement,setting,value
"N=C(N)NCCC[C@H](NC(=O)[C@H](Cc1c[nH]c2ccccc12)NC(=O)[C@H](CCCNC(=N)N)NC(=O)[C@@H](N)CS)C(=O)N[C@@H](Cc1c[nH]c2ccccc12)C(=O)N[C@@H](CCCCN)C(=O)N[C@@H](CS)C(=O)N[C@@H](CS)C(=O)N[C@@H](CCCCN)C(=O)N[C@@H](CCCCN)C(=O)O [CyLoP-1, CRWRWKCCKK] (H-CRWRWKCCKK-OH; N-terminus and C-terminus assumed)",Affected (%),[1]; 0.195 ppm in artificial diet,0%
same,Affected (%),[1]; 0.391 ppm in artificial diet,0%
same,Affected (%),[1]; 0.781 ppm in artificial diet,0%
same,Affected (%),[1]; 1.56 ppm in artificial diet,0%
same,Affected (%),[1]; 3.13 ppm in artificial diet,0%
same,Affected (%),[1]; 6.25 ppm in artificial diet,0%
same,Affected (%),[1]; 12.5 ppm in artificial diet,0%
same,Affected (%),[1]; 25.0 ppm in artificial diet,0%
same,Affected (%),[1]; 50.0 ppm in artificial diet,0%
same,Affected (%),[1]; 100 ppm in artificial diet,0%
same,Affected (%),[1]; 200 ppm in artificial diet,0%
same,fluorescent protein translated from delivered mCherry mRNA (fluorescent signal inside cells),Sf9 cells,Translation of mRNA into a functional fluorescent protein occurred

# From patent publication US20240041050A1, “CELL PENETRATING PEPTIDE MEDIATED RNA TRANSDUCTION WITHIN INSECT CELLS” (PIONEER HI-BRED INTERNATIONAL, INC., priority 2020, published 2024)
